Like-named read-outs stand apart in the source and are kept apart here.
Key:
FLAG-Uba1 [1] = target: T1, FLAG-Uba1 (Homo sapiens, UniProt P22314); experiment: AlphaScreen Uba1~ubiquitin thioester formation; assay type: biochemical
T1 construct: GST- and FLAG-tagged human Uba1 in pBJ842, expressed in S. cerevisiae BJ5654, GST cleaved with PreScission protease, FLAG tag kept
T1 sequence (P22314 2-1058): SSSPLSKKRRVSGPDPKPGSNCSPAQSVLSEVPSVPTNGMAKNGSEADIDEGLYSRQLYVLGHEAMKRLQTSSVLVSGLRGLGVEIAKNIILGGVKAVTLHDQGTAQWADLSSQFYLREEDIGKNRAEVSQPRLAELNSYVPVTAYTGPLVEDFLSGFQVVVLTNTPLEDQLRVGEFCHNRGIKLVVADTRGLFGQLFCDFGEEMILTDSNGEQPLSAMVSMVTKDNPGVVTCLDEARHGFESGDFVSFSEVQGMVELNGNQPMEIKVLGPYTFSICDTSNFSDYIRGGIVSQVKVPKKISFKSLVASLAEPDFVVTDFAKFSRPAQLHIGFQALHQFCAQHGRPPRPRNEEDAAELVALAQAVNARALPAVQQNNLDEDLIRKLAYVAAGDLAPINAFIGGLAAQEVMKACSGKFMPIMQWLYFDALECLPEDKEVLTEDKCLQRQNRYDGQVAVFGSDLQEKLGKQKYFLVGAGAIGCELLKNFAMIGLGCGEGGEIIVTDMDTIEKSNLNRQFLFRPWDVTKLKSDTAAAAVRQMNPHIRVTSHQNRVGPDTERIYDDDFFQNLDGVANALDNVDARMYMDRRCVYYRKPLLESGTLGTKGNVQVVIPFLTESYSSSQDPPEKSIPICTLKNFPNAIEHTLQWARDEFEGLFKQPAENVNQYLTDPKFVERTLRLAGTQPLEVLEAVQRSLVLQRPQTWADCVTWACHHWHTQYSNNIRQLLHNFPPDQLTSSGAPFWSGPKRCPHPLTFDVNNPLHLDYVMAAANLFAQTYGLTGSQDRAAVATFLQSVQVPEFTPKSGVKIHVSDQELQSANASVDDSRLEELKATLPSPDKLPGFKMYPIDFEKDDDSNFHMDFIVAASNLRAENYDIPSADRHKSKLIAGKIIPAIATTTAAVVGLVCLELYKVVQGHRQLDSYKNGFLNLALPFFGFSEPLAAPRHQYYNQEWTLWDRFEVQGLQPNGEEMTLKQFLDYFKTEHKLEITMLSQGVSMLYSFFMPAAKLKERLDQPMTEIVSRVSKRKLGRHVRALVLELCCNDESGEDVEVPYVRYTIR

FLAG-Uba1 [2] = target: T1, FLAG-Uba1; experiment: AlphaScreen Uba1~ubiquitin thioester formation; assay type: biochemical; conditions: read-out: IC50for inhibition of PCNA ubiquitination (Alpha)
Excerpt: AlphaScreen Uba1~ubiquitin thioester formation on FLAG-Uba1

[3] = read-out: IC50for inhibition of Uba1~Ub thioester formation (Alpha)
[4] = read-out: IC50for inhibition of PCNA ubiquitination (Alpha)

SMILES	IC50 (FLAG-Uba1 [1]; [3]) [µM]	other results
O=C1c2c(O)cc(O)cc2O[C@H](c2cc(O)c(O)c(O)c2)[C@H]1O [DM]	27.5	
Oc1cc(O)c2c(c1)O[C@H](c1cc(O)c(O)c(O)c1)[C@H](O)C2 [EGC]	5.96	
CCCCCCCCCCCCOC(=O)c1cc(O)c(O)c(O)c1 [DG]	44.4	
CCCOC(=O)c1cc(O)c(O)c(O)c1 [PG]		IC50 (FLAG-Uba1 [1]; [4]): > 500 µM
Oc1cc(O)c2c(c1)O[C@H](c1ccc(O)c(O)c1)[C@H](O)C2 [EC]		IC50 (FLAG-Uba1 [1]; [4]): > 500 µM
Oc1cc(O)c2c(c1)O[C@H](c1ccc(O)c(O)c1)[C@@H](O)C2 [Cat]		IC50 (FLAG-Uba1 [1]; read-out: IC50for inhibition of PCNA ubiquitination (Western blot) [19]): > 500 µM
O=C(O)c1cc(O)c(O)c(O)c1 [GA]		IC50 (FLAG-Uba1 [2]): > 500 µM
O=C(O[C@@H]1Cc2c(O)cc(O)cc2O[C@@H]1c1ccc(O)c(O)c1)c1cc(O)c(O)c(O)c1 [ECG]	0.769	
O=c1c(O)c(-c2cc(O)c(O)c(O)c2)oc2cc(O)cc(O)c12 [Myr]	1.59	
CCCCCCCCOC(=O)c1cc(O)c(O)c(O)c1 [OG]		IC50 (FLAG-Uba1 [1]; 15 min preincubation, biotin-ubiquitin, 2 mM ATP, 8 mM MgCl2, pH 7.5, 25 °C, 30 min, 1% DMSO, read-out: IC50for inhibition of Uba1~Ub thioester formation (Alpha)): 13.4 µM

Source: article PMC7106726, “Robust high-throughput assays to assess discrete steps in ubiquitination and related cascades” (BMC Molecular and Cell Biology, 2020)
